Values of other authors, collected in PubChem BioAssay AID1259409 (Chemical Carcinogenesis Research Information System (CCRIS), 2018).

System: rodent chemically induced tumor inhibition, incidence and multiplicity
Assay: CCRIS tumor inhibitor studies

Compound: O=C1COc2ccccc21
- tumour outcome (control, treated, inhibition, significance) (Carcinogen: BENZO[A]PYRENE, 50-32-8, Dose [Inhibitor]: 0.034 MMOL/G IN DIET FOR 5 WK BEGINNING 1 WK PRIOR TO CARCINOGEN TREATMENT (STUDY DURATION: 21 WK), Route [Inhibitor]: ORAL, Species: MOUSE, Strain/Sex: ICR/FEMALE, Target Tissue: Type of Lesion: FORESTOMACH: TUMOR, Dose [Carcinogen]: 1 MG IN 0.2 ML CORN OIL 2/WK FOR 4 WK, Promoter: NONE USED): 95%, 89%, 6%, not significant

Compound: C[C@H](CCC(=O)O)[C@H]1CC[C@H]2[C@@H]3[C@@H](O)C[C@@H]4C[C@H](O)CC[C@]4(C)[C@H]3CC[C@]12C
- tumour outcome (control, treated, inhibition, significance) (Carcinogen: AZOXYMETHANE, 25843-45-2, Dose [Inhibitor]: 0, 0.2% IN DIET FOR 28 WK BEGINNING 2 WK PRIOR TO CARCINOGEN TREATMENT (STUDY DURATION: 30 WK), Route [Inhibitor]: ORAL, Species: RAT, Strain/Sex: F344/MALE, Target Tissue: Type of Lesion: COLON: TUMOR, Dose [Carcinogen]: 15 MG/KG BW 1/WK FOR 2 WK, Promoter: CHOLIC ACID, 81-25-4): 30/47 (64%), 20/47 (43%), 33%, not significant
- tumour outcome (control, treated, inhibition, significance) (Carcinogen: AZOXYMETHANE, 25843-45-2, Dose [Inhibitor]: 0, 0.2% IN DIET FOR 28 WK BEGINNING 2 WK PRIOR TO CARCINOGEN TREATMENT (STUDY DURATION: 30 WK), Route [Inhibitor]: ORAL, Species: RAT, Strain/Sex: F344/MALE, Target Tissue: Type of Lesion: COLON: TUMOR, Dose [Carcinogen]: 15 MG/KG BW 1/WK FOR 2 WK, Promoter: NONE USED): 20/43 (47%), 23/48 (48%), -2%, not significant
- tumour outcome (control, treated, inhibition, significance) (Carcinogen: AZOXYMETHANE, 25843-45-2, Dose [Inhibitor]: 0, 0.4% IN DIET FOR 28 WK BEGINNING 2 WK PRIOR TO CARCINOGEN TREATMENT (STUDY DURATION: 30 WK), Route [Inhibitor]: ORAL, Species: RAT, Strain/Sex: F344/MALE, Target Tissue: Type of Lesion: COLON: TUMOR, Dose [Carcinogen]: 15 MG/KG BW 1/WK FOR 2 WK, Promoter: NONE USED): 20/43 (47%), 10/45 (22%), 53%, p<0.05

Compound: CC(=O)Oc1c(C)c(C)c2c(c1C)CC[C@@](C)(CCC[C@H](C)CCC[C@H](C)CCCC(C)C)O2
- tumour outcome (control, treated, inhibition, significance) (Carcinogen: 7,12-DIMETHYLBENZ[A]ANTHRACENE, 57-97-6, Dose [Inhibitor]: 0, 0.2% IN DIET BEGINNING 1 WK PRIOR TO CARCINOGEN DOSE AND CONTINUING FOR 12 WK (STUDY DURATION: 13 WK), Route [Inhibitor]: ORAL, Species: RAT, Strain/Sex: SPRAGUE-DAWLEY/FEMALE, Target Tissue: Type of Lesion: MAMMARY GLAND: TUMORS, Dose [Carcinogen]: 10 MG IN 1 ML CORN OIL ONCE, Promoter: NONE USED): 100%, 80%, 20%, p<0.05
- tumour outcome (control, treated, inhibition, significance) (Carcinogen: 7,12-DIMETHYLBENZ[A]ANTHRACENE, 57-97-6, Dose [Inhibitor]: 0, 10 UMOL 1/WK 5 MIN PRIOR TO EACH PROMOTER DOSE BEGINNING 2 WK POST CARCINOGEN DOSE AND CONTINUING FOR 29 WK (STUDY DU, Route [Inhibitor]: DERMAL, Species: MOUSE, Strain/Sex: SENCAR/FEMALE, Target Tissue: Type of Lesion: SKIN: PAPILLOMA, Dose [Carcinogen]: 25 NMOL ONCE, Promoter: CHRYSAROBIN, 491-58-7): 100%, 93%, 7%, not significant
- tumour outcome (control, treated, inhibition, significance) (Carcinogen: 7,12-DIMETHYLBENZ[A]ANTHRACENE, 57-97-6, Dose [Inhibitor]: 0, 40 UMOL 1/WK 5 MIN PRIOR TO EACH PROMOTER DOSE BEGINNING 2 WK PRIOR TO CARCINOGEN DOSE AND CONTINUING FOR 29 WK (STUD, Route [Inhibitor]: DERMAL, Species: MOUSE, Strain/Sex: SENCAR/FEMALE, Target Tissue: Type of Lesion: SKIN: PAPILLOMA, Dose [Carcinogen]: 25 NMOL ONCE, Promoter: CHRYSAROBIN, 491-58-7): 100%, 68%, 32%, not calculated
- tumour outcome (control, treated, inhibition, significance) (Carcinogen: ETHYLNITROSOUREA, 759-73-9, Dose [Inhibitor]: 0, 600 MG/KG IN 1:10 (VOLUME: VOLUME) SUNFLOWER OIL IN DIET 5 D/WK FOR 18 MO (STUDY DURATION: 18 MO), Route [Inhibitor]: ORAL, Species: RAT, Strain/Sex: ALBINO/MALE,FEMALE, Target Tissue: Type of Lesion: BRAIN: GLIOMA OR ASTROCYTOMA, Dose [Carcinogen]: 7.5 MG/KG IN SALINE BY INTRAVENOUS INJECTION ONCE 21 D AFTER CONCEPTION): 22/54 (41%), 19/50 (38%), 7%, not calculated
- tumour outcome (control, treated, inhibition, significance) (Carcinogen: ETHYLNITROSOUREA, 759-73-9, Dose [Inhibitor]: 0, 600 MG/KG IN 1:10 (VOLUME: VOLUME) SUNFLOWER OIL IN DIET 5 D/WK FOR 18 MO (STUDY DURATION: 18 MO), Route [Inhibitor]: ORAL, Species: RAT, Strain/Sex: ALBINO/MALE,FEMALE, Target Tissue: Type of Lesion: NERVOUS SYSTEM: SCHWANNOMA, Dose [Carcinogen]: 7.5 MG/KG IN SALINE BY INTRAVENOUS INJECTION ONCE 21 D AFTER CONCEPTION): 7/54 (13%), 5/50 (10%) 23%, not calculated
- tumour outcome (control, treated, inhibition, significance) (Carcinogen: ETHYLNITROSOUREA, 759-73-9, Dose [Inhibitor]: 0, 600 MG/KG IN 1:10 (VOLUME: VOLUME) SUNFLOWER OIL IN DIET 5 D/WK FOR 18 MO (STUDY DURATION: 18 MO), Route [Inhibitor]: ORAL, Species: RAT, Strain/Sex: ALBINO/MALE,FEMALE, Target Tissue: Type of Lesion: SPINAL CORD: TUMOR, Dose [Carcinogen]: 7.5 MG/KG IN SALINE BY INTRAVENOUS INJECTION ONCE 21 D AFTER CONCEPTION): 3/54 (6%), 6/50 (12%), -100%, not calculated

Compound: Cc1ncc(C[n+]2csc(CCO)c2C)c(N)n1
- tumour outcome (control, treated, inhibition, significance) (Carcinogen: 7,12-DIMETHYLBENZ[A]ANTHRACENE, 57-97-6, Dose [Inhibitor]: 0.2% IN DRINKING WATER DAILY STARTING 4 WK BEFORE CARCINOGEN TREATMENT AND CONTINUING FOR DURATION OF STUDY (STUDY DURAT, Route [Inhibitor]: ORAL, Species: MOUSE, Strain/Sex: 101/MALE, FEMALE, Target Tissue: Type of Lesion: SKIN: PAPILLOMA, Dose [Carcinogen]: 225 UG IN 0.15 ML ACETONE ONCE, Promoter: CROTON OIL, 8001-28-3): 17/19 (89%), 18/20 (90%), -1%, not calculated
- tumour outcome (control, treated, inhibition, significance) (Carcinogen: BENZO[A]PYRENE, 50-32-8, Dose [Inhibitor]: 2.5 MG 2/WK FOR 20 WK STARTING 4 WK BEFORE START OF CARCINOGEN TREATMENT PLUS 0.2% IN DRINKING WATER (STUDY DURATION: 22, Route [Inhibitor]: SUBCUTANEOUS, ORAL, Species: MOUSE, Strain/Sex: 101/MALE, FEMALE, Target Tissue: Type of Lesion: SKIN: PAPILLOMA, Dose [Carcinogen]: 0.2 ML OF 0.25% 2/WK FOR 20 WK, Promoter: NONE USED): 13/18 (72%), 5/8 (63%), 13%, not calculated
- tumour outcome (control, treated, inhibition, significance) (Carcinogen: BENZO[A]PYRENE, 50-32-8, Dose [Inhibitor]: 2.5 MG 2/WK FOR 20 WK STARTING 4 WK BEFORE START OF CARCINOGEN TREATMENT PLUS 0.2% IN DRINKING WATER (STUDY DURATION: 37, Route [Inhibitor]: SUBCUTANEOUS, ORAL, Species: MOUSE, Strain/Sex: 101/MALE, FEMALE, Target Tissue: Type of Lesion: SKIN: MALIGNANT TUMOR, Dose [Carcinogen]: 0.2 ML OF 0.25% 2/WK FOR 20 WK, Promoter: NONE USED): 12/18 (67%), 5/8 (63%), 6%, not calculated
- tumour outcome (control, treated, inhibition, significance) (Carcinogen: ETHYLNITROSOUREA, 759-73-9, Dose [Inhibitor]: 0, 500 MG/KG MIXED WITH STARCH 1:20 (WEIGHT: WEIGHT) IN DIET 5 D/WK FOR 10 MO (STUDY DURATION: 10 MO), Route [Inhibitor]: ORAL, Species: RAT, Strain/Sex: ALBINO/MALE,FEMALE, Target Tissue: Type of Lesion: BRAIN: GLIOMA OR ASTROCYTOMA, Dose [Carcinogen]: 75 MG/KG IN SALINE BY INTRAVENOUS INJECTION ONCE 21 D AFTER CONCEPTION): 21/40 (52%), 14/20 (70%), -35%, not calculated
- tumour outcome (control, treated, inhibition, significance) (Carcinogen: ETHYLNITROSOUREA, 759-73-9, Dose [Inhibitor]: 0, 500 MG/KG MIXED WITH STARCH 1:20 (WEIGHT: WEIGHT) IN DIET 5 D/WK FOR 10 MO (STUDY DURATION: 10 MO), Route [Inhibitor]: ORAL, Species: RAT, Strain/Sex: ALBINO/MALE,FEMALE, Target Tissue: Type of Lesion: KIDNEY: MESENCHYMAL TUMOR OR ADENOCARCINOMA, Dose [Carcinogen]: 75 MG/KG IN SALINE BY INTRAVENOUS INJECTION ONCE 21 D AFTER CONCEPTION): 11/40 (28%), 10/20 (50%), -79%, not calculated
- tumour outcome (control, treated, inhibition, significance) (Carcinogen: ETHYLNITROSOUREA, 759-73-9, Dose [Inhibitor]: 0, 500 MG/KG MIXED WITH STARCH 1:20 (WEIGHT: WEIGHT) IN DIET 5 D/WK FOR 10 MO (STUDY DURATION: 10 MO), Route [Inhibitor]: ORAL, Species: RAT, Strain/Sex: ALBINO/MALE,FEMALE, Target Tissue: Type of Lesion: NERVOUS SYSTEM: SCHWANNOMA, Dose [Carcinogen]: 75 MG/KG IN SALINE BY INTRAVENOUS INJECTION ONCE 21 D AFTER CONCEPTION): 19/40 (48%), 5/20 (25%), 48%, not calculated
- tumour outcome (control, treated, inhibition, significance) (Carcinogen: ETHYLNITROSOUREA, 759-73-9, Dose [Inhibitor]: 0, 500 MG/KG MIXED WITH STARCH 1:20 (WEIGHT: WEIGHT) IN DIET 5 D/WK FOR 10 MO (STUDY DURATION: 10 MO), Route [Inhibitor]: ORAL, Species: RAT, Strain/Sex: ALBINO/MALE,FEMALE, Target Tissue: Type of Lesion: SPINAL CORD: TUMOR, Dose [Carcinogen]: 75 MG/KG IN SALINE BY INTRAVENOUS INJECTION ONCE 21 D AFTER CONCEPTION): 17/40 (42%), 4/20 (20%), 52%, not calculated
